Patent publication US8329693B2, “Method for the prevention of thromboembolic disorders” (Orion Corporation, priority 2004, dated 2012)

What was measured:
Assay type in all cases: in vivo
[1] = tested on: Dahl salt-sensitive rats on high salt diet; experiment: Effects on mortality in salt sensitive rat model (Experiment 1)
Source text: Effect of levosimendan on early stage mortality of Dahl salt-sensitive rats was studied. Dahl salt-sensitive rats on high salt diet develop hypertension and increased mortality. In the early stages of hypertension the incidence of death is almost entirely due to stroke and sudden death. See Qu, P. et al., Hypertens. Res., 2000; 23:613-623.
6-week-old male Dahl salt-sensitive rats (SS/JrHsd) received the following diet and drug regimens for 7 weeks: 1) Dahl SS controls on high salt diet, 2) Dahl SS rats on high salt diet+high-dose levosimendan (10 mg/l of levosimendan in drinking water), 3) Dahl SS rats on high salt diet+low-dose levosimendan (1 mg/l of levosimendan in drinking water) and 4) Dahl SS controls on low salt diet. High salt diet was produced by adding NaCl to commercial low salt diet.
Only 38% (9/24) of rats on high salt diet survived the 7-week follow up period.

[2] = tested on: Dahl SS rats on high-salt diet; experiment: Mortality in Dahl salt-sensitive rat stroke model (Experiment 2); conditions: High-Salt diet + Levosimendan 1 mg/kg/day (2 mg/l in drinking water), 7 weeks, n=20; vehicle group 70%
Procedure: Effect of levosimendan on the incidence of cerebral strokes in Dahl salt-sensitive rat stroke model was studied using Magnetic Resonance Imaging (MRI) and behavioural tests (Neuroscore and Functional Observational Battery (FOB)).
(§1) Dahl SS rats were divided into three treatment groups: High-Salt diet+vehicle (n=20), High-Salt diet+Levosimendan 1 mg/kg/day (n=20), and Normal-Salt diet control (n=4). High salt diet contained 7% of NaCl in commercial low salt diet. Feeding with the high-salt diet was started at the age of 6 weeks and continued 7 weeks until the end of the study. Levosimendan was administered via drinking water (2 mg/l of levosimendan in drinking water). The administration was started at the same time as the high-salt diet and continued until the end of the study. The consumption of drinking water and food as well as the body weight and general health of the animals were monitored. MRI was performed once-a-week during the weeks 2-8. FOB and 7-point Neuroscore testing were performed once-a-week during the weeks 1-3 and twice-a-week during weeks the 4-8.

[3] = tested on: Dahl SS rats on high-salt diet; experiment: Ex vivo MRI of post-mortem brain, Dahl salt-sensitive rat stroke model
Procedure: as §1
For ex-vivo imaging post-mortem brain was removed from the skull and immersed into 4% formalin for 48 h and thereafter stored in 0.1 M PBS. The brain was embedded in perfluoropolyether and MRI was performed in 9.4 T magnet (Oxford) interfaced to a SMIS-console. The interpretation of hyperintensity and signal void areas follows that presented for in vivo studies. In ex vivo studies only mature lesions with significant oedema and destructed tissue structure can be detected. Initial T2 contrast, which may be detectable in vivo, may not be visible in ex vivo studies. The findings in ex vivo studies support the idea that most of the ischemic lesions were associated with hemorrhage. […] Abbreviations: LS, levosimendan.

[4] = tested on: Dahl SS rats on high-salt diet; experiment: Seven-point Neuroscore test, Dahl salt-sensitive rat stroke model; conditions: throughout the study (weeks 1-8); grade 6 = normal
Procedure: as §1
(§2) Functional observational battery (FOB) and Neuroscore testing were performed once-a-week during weeks 1-3 and twice-a-week during weeks 4-8.
A seven-point neuroscore test was used to assess motor and behavioral deficits (modified from Zausinger et al. Brain Res. 863:94-105, 2000). The neurological test was conducted by an investigator blinded to the treatment status of the rats. The seven-point scale was as follows:
Grade 6: Normal extension of both forelimbs towards the floor when lifted gently by the tail. […]

[5] = tested on: Dahl SS rats on high-salt diet; experiment: Functional observational battery (FOB), Dahl salt-sensitive rat stroke model; conditions: weeks 1-8, levosimendan 1 mg/kg/day
Procedure: as §1, §2
All rats were observed using standardized procedures. The procedures included observation of rats in the home cage, while moving in open arena and through manipulative tests. The measures included:
(1) Home-Cage Measurements:
Body position, Respiration, Vocalization and Palpebral closure.
(2) Hand-Held Observations: […]

In the case of `CC1CC(=O)NN=C1c1ccc(NN=C(C#N)C#N)cc1` (single isomer, unassigned; (-)) [levosimendan, (−)-enantiomer of [[4-(1,4,5,6-tetrahydro-4-methyl-6-oxo-3-pyridazinyl)phenyl]hydrazono]propanedinitrile], the “early stage mortality of salt-sensitive rats” value ([1]; 7 weeks, levosimendan in drinking water) is reported as “markedly reduced”, the “rats that died during the 7-week follow up period” value ([1]; high-dose levosimendan, 10 mg/l in drinking water) is reported as “three out of 12” and the “rats that died during the 7-week follow up period” value ([1]; low-dose levosimendan, 1 mg/l in drinking water, n=12) is reported as “None”. For the same compound, the “mortality during the study” value [2] was 5%, the “Incidence of T2 changes, class 0” value ([3]; class 0, levosimendan 1 mg/kg/day) was 80% and the “Incidence of T2 changes, class 1-50” value ([3]; class 1-50, levosimendan 1 mg/kg/day) was 20%. The “Incidence of T2 changes, class 51-100” value ([3]; class 51-100, levosimendan 1 mg/kg/day) was 0%, the “Incidence of T2 changes, class >200” value ([3]; class >200, levosimendan 1 mg/kg/day) was 0% and the “seven-point Neuroscore” value [4] was “scored maximum scores throughout the study”. The “stroke-associated behavioural deficits observed in FOB testing” value [5] was “markedly reduce and postpone”.
